Data: patent US20230398135A1, “COMPOSITIONS INCLUDING CANNABINOID AND USE THEREOF IN THE MANUFACTURE OF A MEDICAMENT FOR THE TREATMENT OF INFLAMMATION IN A SUBJECT” (priority 2022, published 2023)

Columns and labels:
[1] = antioxidant DPPH assay (free radical scavenging); details: used individually
Method: In some embodiments, the composition may have an antioxidant activity/effect. FIG. 10 is a bar diagram illustrating antioxidant effects of CBD, CBG, and BAK used individually according to some embodiments of the present disclosure. In some embodiments, data in the bar diagram in FIG. 10 was determined (e.g., measured) according to an antioxidant DPPH (i.e., α, α-diphenyl-β-picrylhydrazyl) assay that was well known for the skills in the art. An antioxidant effect was reflected by free radical scavenging after the reaction. The greater the free radical scavenging, the better the antioxidant effect.

COX-2 [2] = target: T1, COX-2 (Homo sapiens, UniProt P35354); experiment: fluorometric COX-2 inhibition assay (Cayman Chemical kit); type: biochemical; details: for inhibition at 50 µM: read-out: COX-2 Inhibition (%); for COX-2 inhibition corresponding to plateau (FIGS. 3A, 3B): after molar concentrations exceeded 10 μM; for COX-2 inhibitory effect (FIG. 1): used individually at 50 μM, 10 μM, 2 μM, 0.04 μM
T1 construct: purchased BioVision Inc. (Mountain View, CA, USA)
T1 sequence (P35354 18-604): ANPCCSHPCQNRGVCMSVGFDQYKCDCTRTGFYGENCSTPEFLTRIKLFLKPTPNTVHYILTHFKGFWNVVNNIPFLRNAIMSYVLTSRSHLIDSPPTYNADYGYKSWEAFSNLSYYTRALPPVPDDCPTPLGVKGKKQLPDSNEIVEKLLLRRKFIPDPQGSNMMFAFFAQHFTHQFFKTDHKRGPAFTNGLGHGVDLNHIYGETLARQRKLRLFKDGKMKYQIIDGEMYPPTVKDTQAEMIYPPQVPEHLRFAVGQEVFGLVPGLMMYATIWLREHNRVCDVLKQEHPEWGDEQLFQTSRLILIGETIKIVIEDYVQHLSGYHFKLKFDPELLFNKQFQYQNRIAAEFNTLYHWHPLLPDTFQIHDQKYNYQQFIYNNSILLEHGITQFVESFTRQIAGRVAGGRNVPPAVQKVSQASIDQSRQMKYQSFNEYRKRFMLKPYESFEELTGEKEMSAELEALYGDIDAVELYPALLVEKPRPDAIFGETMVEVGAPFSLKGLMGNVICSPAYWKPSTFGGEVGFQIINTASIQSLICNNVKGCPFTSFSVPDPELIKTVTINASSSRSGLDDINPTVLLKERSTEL
Method: FIG. 1 is a bar diagram illustrating COX-2 inhibitory effects of CBD and CBG used individually at different molar concentrations according to some embodiments of the present disclosure. Table 1 illustrates COX-2 inhibitory effects of some skincare active components used individually according to some embodiments of the present disclosure. The COX-2 inhibitory effects in FIG. 1 and Table 1 were determined using a fluorometric COX-2 inhibition kit from Cayman Chemical Company (Ann Arbor, Michigan, USA) according to the method of COX-2 inhibition assay as described elsewhere in the present disclosure.
Table 2 illustrates COX-2 inhibitory effects of exemplary compositions of CBD and CBG according to some embodiments of the present disclosure. The COX-2 inhibitory effects in Table 2 were determined using a fluorometric COX-2 inhibition kit from Cayman Chemical Company (Ann Arbor, Michigan, USA) according to the method of COX-2 inhibition assay as described elsewhere in the present disclosure. The compositions A, B, and C in Table 2 may be at 10 μM.
FIG. 2 is a bar diagram illustrating COX-2 inhibitory effects of CBD and CBG used individually and in combination at different molar concentrations according to some embodiments of the present disclosure. The COX-2 inhibitory effects in FIG. 1 and Table 1 were determined using a fluorometric COX-2 inhibition kit from Cayman Chemical Company (Ann Arbor, Michigan, USA) according to the method of COX-2 inhibition assay as described in the present disclosure. In FIG. 2. COMIX represents a composition (or mixture) of CBD, CBG, NMN, BAK, AGE Defense, and RC Bio. Concentrations of CBD, CBG, NMN, BAK, AGE Defense, and RC Bio in COMIX were 10 ug/mL, 2 ug/mL, 2 ug/mL, 2 ug/mL, 2 ug/mL, and 2 ug/mL, respectively. The COX-2 inhibitory effect of COMIX was measured for providing an assay basis for designing subsequent COX-2 inhibition assays. MIX′ represents a composition (or mixture) of CBD and CBG at a molar concentration ratio of 1:1. […] When a total CBD/CBG molar concentration of MIX′ was 0.5 μM, molar concentrations of CBD and CBG in MIX′ were 0.25 μM. Similarly, when a total CBD/CBG molar concentration of MIX′ was 1.0 μM, molar concentrations of CBD and CBG in MIX′were 0.5 μM; when a total CBD/CBG molar concentration of MIX′ was 5 μM, molar concentrations of CBD and CBG in MIX were 2.5 μM; when a total CBD/CBG molar concentration of MIX′ was 10 μM, molar concentrations of CBD and CBG in MIX′ were 5 μM; and when a total CBD/CBG molar concentration of MIX′ was 20 μM, molar concentrations of CBD and CBG in MIX′ were 10.0 μM.
(§1) Materials and methods: the inhibitory effects of test samples (e.g., CBD, CBG, BAK, Mix, a positive control, and/or other compounds and compositions described in the present disclosure) against COX-2 were measured by a fluorometric COX-2 inhibition kit from Cayman Chemicals (Ann Arbor, Michigan, USA) or BioVision Inc. (Mountain View, CA, USA) following the manufacturer's instructions. Briefly, a COX-2 enzyme was reconstituted with 110 μL of sterile distilled H2O and arachidonic acid was dissolved in 55 μL ethanol. COX cofactor was diluted with COX assay buffer for 200 times, and arachidonic acid and NaOH were mixed in a molar ratio of 1:1 before it was diluted for 10 times for further use. COX assay buffer (84 μL), COX probe (1 μL), diluted COX cofactor (2 μL), COX-2 enzyme (1 μL), and test samples (2 μL) were incubated in a 96-well plate at room temperature for 10 min. Next, diluted arachidonic acid/NaOH solution (10 μL) was added to each well of the 96-well plate to initiate the reaction.

TNF-α = experiment: suppression of TNF-α in inflammatory model induced by lipopolysaccharides and nigericin; type: cell-based; details: 20 μM; LPS and nigericin model
Method: (§2) FIGS. 7 and 8 are bar diagrams illustrating exemplary abilities of CBG, BAK, and a composition (i.e., Mix) of CBD, CBG, and BAK at a molar concentration of 1:1:1 to suppress activities of pro-inflammatory cytokines according to some embodiments of the present disclosure. In FIGS. 7 and 8, Model represents an inflammatory model that was induced by lipopolysaccharides and nigericin. The abilities/functions of CBG, BAK, and Mix to suppress pro-inflammatory cytokines in FIGS. 7 and 8 were measured at a total CBD/CBG/BAK molar concentration of 20 μM. An ability/function to suppress activity of a pro-inflammatory cytokine was reflected by a remaining concentration of the pro-inflammatory cytokine after the reaction. The greater the remaining concentration of the pro-inflammatory cytokine, the worse the ability to suppress activity of the pro-inflammatory cytokine.

IL-1β = experiment: suppression of IL-1β in inflammatory model, cell level; type: cell-based; details: 20 μM; LPS and nigericin model
Method: as §2
FIG. 9 is a bar diagram illustrating exemplary abilities of a composition (i.e., Mix) of CBD, CBG, and BAK at a molar concentration of 1:1:1 at different molar concentrations to suppress activity of […] according to some embodiments of the present disclosure. In FIG. 9, Model represents an inflammatory model which was different from that in FIG. 8. […]

COX-2 [3] = target: T1, COX-2; experiment: fluorometric COX-2 inhibition assay (BioVision kit); type: biochemical; details: for COX-2 inhibitory effect compared with personal care ingredients (terpenes): all at 50 μM, FIGS. 4-6; for inhibition at 10 µM / inhibition at 50 µM: read-out: COX-2 Inhibition (%); for inhibition at 12.5 µM: read-out: COX-2 inhibitions (FIG. 5)
Method: The COX-2 inhibitory effects in FIGS. 4-6 were determined using a fluorometric COX-2 inhibition kit from BioVision Inc. (Mountain View, CA, USA) according to the methods described in COX-2 inhibition assay. The personal care ingredients Lim, Lin, Ner, Myc, α-pin, β-car, and α-bis represent limonene, linalool, nerolidol, myrcene, alpha-pinene, beta-caryophyllene, and alpha-bisabolol, respectively. In FIGS. 5 and 6, MIX represents a composition (or mixture) of CBD, CBG, and BAK at a molar concentration ratio of 1:1:1. MIX 50 μM, MIX 25 μM, and 12.5 μM represent total CBD/CBG/BAK molar concentrations of MIX being 50 μM, 25 μM, and 12.5 μM, respectively. CBD 50 μM represents that CBD is used individually and a molar concentration of CBD is 50 μM.
as §1, with “reaction. The fluorescence of each well was recorded at an excitation wavelength of 535 nm and an emission wavelength of 587 nm with a kinetic mode for 10 min using a plate reader (SpectraMax® M2, Molecular Devices Corp., operated by SoftmaxPro® v.4.6 software, Sunnyvale, CA, USA). […] Two points (T1 and T2) in a linear range of a plot related to the recorded fluorescence were used to obtain corresponding fluorescence values (RFU1 and RFU2). Then, a slope for a sample was calculated by dividing a net ΔRFU (RFU2-RFU1) value by the time ΔT (T2-T1). An inhibition (%) of COX-2 of the sample was determined as the following equation: Inhibition (%)=((slope of control−slope of the sample)/slope of control)×100.” for “reaction.”

Row | Structure (SMILES) | antioxidant effect compared with the other compounds (FIG. 10) [1] | antioxidant effect, free radical scavenging (FIG. 10) [1] | inhibition at 50 µM (COX-2 [2]) [%] | remaining concentration of TNF-α versus Model (FIG. 7) (TNF-α) | remaining concentration of IL-1β versus Model (FIG. 8) (IL-1β) | COX-2 inhibitory effect compared with personal care ingredients (terpenes) (COX-2 [3]) | inhibition at 10 µM (COX-2 [3]) [%] | inhibition at 50 µM (COX-2 [3]) [%] | inhibition at 12.5 µM (COX-2 [3]) [%] | COX-2 inhibition corresponding to plateau (FIGS. 3A, 3B) (COX-2 [2]) | COX-2 inhibitory effect (FIG. 1) (COX-2 [2]) | COX-2 Inhibition (%) (COX-2 [2]; compound used individually at 50 μM)
1 | C=C[C@@](C)(/C=C/c1ccc(O)cc1)CCC=C(C)C [BAK, bakuchiol] | better antioxidant effect than CBG and CBG | had an antioxidant effect | 81.9 | lower than the remaining concentration of TNF-α corresponding to Model | had an activity to suppress activity of IL-113 | better COX-2 inhibitory effects than the personal care ingredients | 45 | 67.3 | ~60 | – | – | –
2 | C=C(C)[C@@H]1CCC(C)=C[C@H]1c1c(O)cc(CCCCC)cc1O [CBD, cannabidiol, reference compound] | – | had an antioxidant effect | 71.9 | – | – | better COX-2 inhibitory effects than the personal care ingredients | 42 | 52.5 | ~60 | about 60% | had a COX-2 inhibitory effect | –
3 | CCCCCc1cc(O)c(C/C=C(\C)CCC=C(C)C)c(O)c1 [CBG, cannabigerol] | – | had an antioxidant effect | 87.4 | lower than the remaining concentration of TNF-α corresponding to Model | had an activity to suppress activity of IL-113 | better COX-2 inhibitory effects than the personal care ingredients | 51.9 | 65.7 | ~60 | about 60% | had a COX-2 inhibitory effect | –
4 | Cn1c(=O)c2c(ncn2C)n(C)c1=O [Caffeine, caffeine, reference compound] | – | – | 63.5 | – | – | – | – | – | – | – | – | –
5 | NC(=O)c1ccc[n+]([C@@H]2O[C@H](COP(=O)([O-])O)[C@@H](O)[C@H]2O)c1 [NMN, nicotinamide mononucleotide] | – | – | – | – | – | – | – | – | – | – | – | 19.63
